Data reported in PMC5617480 (Oncotarget, 2017).

Tested on: telomeres/telomerase-related genes
Test: RT-qPCR array (Telomeres & Telomerase PCR Array)
Format: cell-based, human
Settings: BEL-7404 cells, 10 μM, 24 h
Protocol: To determine the mechanism(s), we further explored the effect of complex 6 on the expression of telomeres/telomerase-related genes (such as TRF1, hTERT, TRF2, c-myc, and 53BP1) in the BEL-7404 model. Firstly, RT-qPCR array was used to determine mRNA levels of telomeres/telomerase-related gene expressions in BEL-7404 cells when the cells were treated with complex 6. […] Secondly, these telomerase-related genes were determined by western blot. […]
In addition, RNA
30.0 min at room temperature in the dark. Finally, the extraction, RT-PCR, and the selective binding to G4s by BEL-7404 cell cycle was determined with FACS Calibur complexes 4–6 was according to the our previous reported flow cytometer (BD) and analyzed using Cell Quest. […]
ME). Gene expression by a panel of genes for RT-Determination of caspase-3/9 activity by flow qPCR array cytometric analysis Differential expression of telomeres/telomerase-related genes was analyzed using the Telomeres &
Colorimetric analysis of caspase-9 and caspase-3 Telomerase PCR Array (RT2 Profiler™ PCR Array Human activation in BEL-7404 cells exposed to 10 μM of Telomeres & Telomerase, PAHS-010Z, SABioscience, complexes 4–6 for 24.0 h were carried out using the USA) obtained from Kangchen Bio-tech, Shanghai, China.
CaspGLOW™ Fluorescein Active Caspase-9/Caspase-3 RNA was extracted according to standard protocols and Staining Kit. The BEL-7404 cells treated with complexes converted to first strand cDNA using the RT2 First Strand 4–6 and the controlled BEL-7404 cells were harvested Kit. The template was added to an instrument specific, from RPMI 1640 medium with 10% FBS, in a density of ready-to-use RT2 SYBR Green qPCR Master Mix. The 1.0 × 10^6 cells per milliliter. These cells were washed with resulting mixture was added to the wells (25.0 μL/well) of PBS and centrifuged for 3 times, and were then mixed the PCR Array plate containing the telomere maintenance, with 500 μL culture. 1.0 μL of FITC-LEHD-FMK or/telomere-associated complexes, telomere regulation and FITC-DEVD-FMK were consequently added and other genes associated with telomeres gene-specific primer incubated for 2.0 h at 37 °C with 5% CO2. The BEL- sets (25 μL for 96-well plates) and PCR was performed.
7404 cells were then determined with a FACS AriaII flow The threshold cycle (Ct) values for all the genes on each cytometer equipped with a 488 nm argon laser. Results PCR Array were calculated using the instrument specific were represented as the percent change on the activity software and the fold-changes in gene expression for pair-comparing with the control group. wise comparison were calculated using the 2-ΔCt method.
Western blot assay TRAP Assay (TRAP-silver staining assay)
The BEL-7404 Cells were treated with the same as Each telomerase extract was prepared from BEL-the above for 24.0 h with complexes 4–6 (10 μM), and 7404 cells. A modified version of the TRAP assay was total proteins were extracted by lysis buffer RIPA. Then used. The PCR was performed in a final […] use BCA protein assay to measure concentrations of each reaction volume composed of reaction mix ([…]) sample. After electrophoresis on 10% PAGE-SDS gel containing pH 8.0 Tris-HCl (20.0 mM), deoxynucleotide and blotting, anti-mutp53, 53BP1, TRF1, TRF2, hTERT, triphosphates ([…]), BSA (20 mg/mL), primer

Substance: cis-[PtCl2(S-(–)-FOA)] [complex 6]
- Fold Change, ABL1: 0.80
- Fold Change, ACD: 1.16
- Fold Change, ACTB: 0.76
- Fold Change, AKT1: 0.77
- Fold Change, ATM: 1.08
- Fold Change, ATP5C1: 1.19
- Fold Change, B2M: 1.15
- Fold Change, BCL2: 0.76
- Fold Change, BLM: 1.21
- Fold Change, CDK2: 0.80
- Fold Change, CHEK1: 1.13
- Fold Change, CHEK2: 1.23
- Fold Change, DCLRE1B: 0.81
- Fold Change, DCLRE1C: 1.20
- Fold Change, DKC1: 1.14
- Fold Change, EGF: 1.11
- Fold Change, EME1: 1.26
- Fold Change, ERCC1: 1.00
- Fold Change, ERCC4: 1.22
- Fold Change, GAPDH: 0.97
- Fold Change, GAR1: 0.95
- Fold Change, HAT1: 1.13
- Fold Change, HNRNPA2B1: 1.06
- Fold Change, HNRNPD: 0.95
- Fold Change, HPRT1: 1.14
- Fold Change, HSP90AA1: 1.35
- Fold Change, HSPA1L: 1.65
- Fold Change, IGF1: 0.02
- Fold Change, KRAS: 0.88
- Fold Change, KRIT1: 1.12
- Fold Change, MEN1: 1.14
- Fold Change, MRE11A: 1.41
- Fold Change, MSH2: 0.90
- Fold Change, MSH3: 0.66
- Fold Change, MUS81: 1.55
- Fold Change, MYC: 0.75
- Fold Change, NBN: 0.79
- Fold Change, NCL: 1.04
- Fold Change, NHP2: 1.46
- Fold Change, NOP10: 0.82
- Fold Change, OBFC1: 1.32
- Fold Change, PARP1: 1.02
- Fold Change, PAX8: 9.91
- Fold Change, PIF1: 0.84
- Fold Change, PINX1: 1.13
- Fold Change, PLK1: 0.72
- Fold Change, POT1: 0.87
- Fold Change, PPARG: 1.08
- Fold Change, PPP2R1A: 0.88
- Fold Change, PPP2R1B: 0.68
- Fold Change, PRKCA: 1.12
- Fold Change, PRKCB: 0.48
- Fold Change, PRKDC: 0.83
- Fold Change, PTGES3: 1.07
- Fold Change, PURA: 1.07
- Fold Change, RAD17: 1.11
- Fold Change, RAD50: 1.44
- Fold Change, RAP1A: 0.90
- Fold Change, RAPGEF1: 0.97
- Fold Change, RASSF1: 1.26
- Fold Change, RB1: 0.59
- Fold Change, RFC1: 1.33
- Fold Change, RIF1: 1.67
- Fold Change, RPLP0: 1.05
- Fold Change, RTEL1: 0.39
- Fold Change, SART1: 1.50
- Fold Change, SIRT2: 0.84
- Fold Change, SIRT6: 1.89
- Fold Change, SLX4: 0.87
- Fold Change, SMAD3: 0.65
- Fold Change, SMG6: 1.05
- Fold Change, SP1: 0.70
- Fold Change, SSB: 1.14
- Fold Change, SUN1: 1.04
- Fold Change, TEP1: 1.73
- Fold Change, TERF1: 1.39
- Fold Change, TERF2: 0.99
- Fold Change, TERF2IP: 1.47
- Fold Change, TERT: 0.89
- Fold Change, TGFB1: 1.46
- Fold Change, TINF2: 1.14
- Fold Change, TNKS: 1.12
- Fold Change, TNKS2: 1.02
- Fold Change, TP53: 1.45
- Fold Change, TP53BP1: 1.18
- Fold Change, TPP1: 1.07
- Fold Change, WRAP53: 0.94
- Fold Change, XRCC5: 0.76
- Fold Change, XRCC6: 1.15
- Fold Up-or Down-Regulation, ABL1: -1.25
- Fold Up-or Down-Regulation, ACD: 1.16
- Fold Up-or Down-Regulation, ACTB: -1.32
- Fold Up-or Down-Regulation, AKT1: -1.30
- Fold Up-or Down-Regulation, ATM: 1.08
- Fold Up-or Down-Regulation, ATP5C1: 1.19
- Fold Up-or Down-Regulation, B2M: 1.15
- Fold Up-or Down-Regulation, BCL2: -1.32
- Fold Up-or Down-Regulation, BLM: 1.21
- Fold Up-or Down-Regulation, CDK2: -1.24
- Fold Up-or Down-Regulation, CHEK1: 1.13
- Fold Up-or Down-Regulation, CHEK2: 1.23
- Fold Up-or Down-Regulation, DCLRE1B: -1.24
- Fold Up-or Down-Regulation, DCLRE1C: 1.20
- Fold Up-or Down-Regulation, DKC1: 1.14
- Fold Up-or Down-Regulation, EGF: 1.11
- Fold Up-or Down-Regulation, EME1: 1.26
- Fold Up-or Down-Regulation, ERCC1: -1.00
- Fold Up-or Down-Regulation, ERCC4: 1.22
- Fold Up-or Down-Regulation, GAPDH: -1.04
- Fold Up-or Down-Regulation, GAR1: -1.05
- Fold Up-or Down-Regulation, HAT1: 1.13
- Fold Up-or Down-Regulation, HNRNPA2B1: 1.06
- Fold Up-or Down-Regulation, HNRNPD: -1.06
- Fold Up-or Down-Regulation, HPRT1: 1.14
- Fold Up-or Down-Regulation, HSP90AA1: 1.35
- Fold Up-or Down-Regulation, HSPA1L: 1.65
- Fold Up-or Down-Regulation, IGF1: -57.88
- Fold Up-or Down-Regulation, KRAS: -1.13
- Fold Up-or Down-Regulation, KRIT1: 1.12
- Fold Up-or Down-Regulation, MEN1: 1.14
- Fold Up-or Down-Regulation, MRE11A: 1.41
- Fold Up-or Down-Regulation, MSH2: -1.11
- Fold Up-or Down-Regulation, MSH3: -1.51
- Fold Up-or Down-Regulation, MUS81: 1.55
- Fold Up-or Down-Regulation, MYC: -1.33
- Fold Up-or Down-Regulation, NBN: -1.27
- Fold Up-or Down-Regulation, NCL: 1.04
- Fold Up-or Down-Regulation, NHP2: 1.46
- Fold Up-or Down-Regulation, NOP10: -1.22
- Fold Up-or Down-Regulation, OBFC1: 1.32
- Fold Up-or Down-Regulation, PARP1: 1.02
- Fold Up-or Down-Regulation, PAX8: 9.91
- Fold Up-or Down-Regulation, PIF1: -1.19
- Fold Up-or Down-Regulation, PINX1: 1.13
- Fold Up-or Down-Regulation, PLK1: -1.39
- Fold Up-or Down-Regulation, POT1: -1.14
- Fold Up-or Down-Regulation, PPARG: 1.08
- Fold Up-or Down-Regulation, PPP2R1A: -1.13
- Fold Up-or Down-Regulation, PPP2R1B: -1.46
- Fold Up-or Down-Regulation, PRKCA: 1.12
- Fold Up-or Down-Regulation, PRKCB: -2.06
- Fold Up-or Down-Regulation, PRKDC: -1.20
- Fold Up-or Down-Regulation, PTGES3: 1.07
- Fold Up-or Down-Regulation, PURA: 1.07
- Fold Up-or Down-Regulation, RAD17: 1.11
- Fold Up-or Down-Regulation, RAD50: 1.44
- Fold Up-or Down-Regulation, RAP1A: -1.11
- Fold Up-or Down-Regulation, RAPGEF1: -1.03
- Fold Up-or Down-Regulation, RASSF1: 1.26
- Fold Up-or Down-Regulation, RB1: -1.70
- Fold Up-or Down-Regulation, RFC1: 1.33
- Fold Up-or Down-Regulation, RIF1: 1.67
- Fold Up-or Down-Regulation, RPLP0: 1.05
- Fold Up-or Down-Regulation, RTEL1: -2.58
- Fold Up-or Down-Regulation, SART1: 1.50
- Fold Up-or Down-Regulation, SIRT2: -1.19
- Fold Up-or Down-Regulation, SIRT6: 1.89
- Fold Up-or Down-Regulation, SLX4: -1.15
- Fold Up-or Down-Regulation, SMAD3: -1.55
- Fold Up-or Down-Regulation, SMG6: 1.05
- Fold Up-or Down-Regulation, SP1: -1.43
- Fold Up-or Down-Regulation, SSB: 1.14
- Fold Up-or Down-Regulation, SUN1: 1.04
- Fold Up-or Down-Regulation, TEP1: 1.73
- Fold Up-or Down-Regulation, TERF1: 1.39
- Fold Up-or Down-Regulation, TERF2: -1.01
- Fold Up-or Down-Regulation, TERF2IP: 1.47
- Fold Up-or Down-Regulation, TERT: -1.12
- Fold Up-or Down-Regulation, TGFB1: 1.46
- Fold Up-or Down-Regulation, TINF2: 1.14
- Fold Up-or Down-Regulation, TNKS: 1.12
- Fold Up-or Down-Regulation, TNKS2: 1.02
- Fold Up-or Down-Regulation, TP53: 1.45
- Fold Up-or Down-Regulation, TP53BP1: 1.18
- Fold Up-or Down-Regulation, TPP1: 1.07
- Fold Up-or Down-Regulation, WRAP53: -1.06
- Fold Up-or Down-Regulation, XRCC5: -1.32
- Fold Up-or Down-Regulation, XRCC6: 1.15
